Reference: ChEMBL document CHEMBL4800729 (2021)
Active and inactive are the calls of the source. The calls are words filed in the database; no cut-off is given here.

How the values were obtained:
[1] = molecular target: Serine/threonine-protein kinase A-Raf (Homo sapiens) (UniProt P10398); assay: A_Raf(h) Millipore kinase panel; settings: Compound concentration 1.0 uM
[2] = molecular target: Ephrin type-A receptor 5 (Homo sapiens) (UniProt P54756); assay: EphA5(h) Millipore kinase panel; settings: Compound concentration 1.0 uM
[3] = molecular target: Serine/threonine-protein kinase WNK1 (Homo sapiens) (UniProt Q9H4A3); assay: WNK1(h) Millipore kinase panel; settings: Compound concentration 1.0 uM
Homo sapiens = species: Homo sapiens; assay: Cdc7/cyclinB(h) Millipore kinase panel; settings: Compound concentration 1.0 uM
[4] = molecular target: Receptor tyrosine-protein kinase erbB-4 (Homo sapiens) (UniProt Q15303); assay: ErbB4(h) Millipore kinase panel; settings: Compound concentration 1.0 uM
Sequence of Receptor tyrosine-protein kinase erbB-4 (Homo sapiens) (Q15303 whole entry): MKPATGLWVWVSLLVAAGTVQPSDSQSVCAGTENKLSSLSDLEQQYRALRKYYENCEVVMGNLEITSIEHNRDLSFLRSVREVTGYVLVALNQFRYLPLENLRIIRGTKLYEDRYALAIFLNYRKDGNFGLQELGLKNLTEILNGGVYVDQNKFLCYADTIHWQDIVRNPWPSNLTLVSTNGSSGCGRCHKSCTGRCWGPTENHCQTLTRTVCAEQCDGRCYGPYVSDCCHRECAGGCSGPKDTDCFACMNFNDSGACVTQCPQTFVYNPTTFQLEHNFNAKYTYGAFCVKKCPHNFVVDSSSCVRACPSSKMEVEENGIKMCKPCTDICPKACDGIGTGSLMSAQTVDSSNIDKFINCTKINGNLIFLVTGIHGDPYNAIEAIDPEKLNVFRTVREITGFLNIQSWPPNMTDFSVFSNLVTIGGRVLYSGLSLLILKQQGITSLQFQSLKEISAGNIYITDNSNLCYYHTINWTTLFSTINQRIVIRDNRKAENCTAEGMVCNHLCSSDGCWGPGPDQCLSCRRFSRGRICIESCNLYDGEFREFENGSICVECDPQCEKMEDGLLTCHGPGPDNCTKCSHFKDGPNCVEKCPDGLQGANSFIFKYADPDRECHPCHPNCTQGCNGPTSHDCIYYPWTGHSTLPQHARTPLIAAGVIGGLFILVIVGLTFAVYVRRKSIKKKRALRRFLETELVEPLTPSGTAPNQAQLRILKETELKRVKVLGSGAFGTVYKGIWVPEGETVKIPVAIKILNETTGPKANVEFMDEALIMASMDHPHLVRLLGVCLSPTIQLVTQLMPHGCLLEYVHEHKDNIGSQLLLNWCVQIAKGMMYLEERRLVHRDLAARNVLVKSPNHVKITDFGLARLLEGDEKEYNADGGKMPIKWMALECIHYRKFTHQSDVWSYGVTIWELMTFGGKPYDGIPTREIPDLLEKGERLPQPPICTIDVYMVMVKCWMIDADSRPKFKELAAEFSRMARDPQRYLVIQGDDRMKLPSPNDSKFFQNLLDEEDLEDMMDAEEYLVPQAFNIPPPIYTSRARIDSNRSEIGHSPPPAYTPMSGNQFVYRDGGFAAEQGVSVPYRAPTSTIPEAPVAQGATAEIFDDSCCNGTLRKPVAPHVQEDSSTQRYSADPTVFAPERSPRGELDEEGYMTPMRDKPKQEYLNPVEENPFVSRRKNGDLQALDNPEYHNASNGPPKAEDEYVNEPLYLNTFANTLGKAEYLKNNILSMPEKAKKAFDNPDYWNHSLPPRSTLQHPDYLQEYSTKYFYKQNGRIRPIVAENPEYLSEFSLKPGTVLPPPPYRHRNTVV

[5] = molecular target: 3',5'-cyclic-AMP phosphodiesterase 4D (Homo sapiens) (UniProt Q08499); assay: Inhibition of Phosphodiesterase PDE4D2 at 10 µM in the Eurofins-Panlabs enzyme assay (Eurofins_assay_154420); set-up: substrate with concentration; settings: Compound concentration 10.0 uM
Sequence of 3',5'-cyclic-AMP phosphodiesterase 4D (Homo sapiens) (Q08499 whole entry): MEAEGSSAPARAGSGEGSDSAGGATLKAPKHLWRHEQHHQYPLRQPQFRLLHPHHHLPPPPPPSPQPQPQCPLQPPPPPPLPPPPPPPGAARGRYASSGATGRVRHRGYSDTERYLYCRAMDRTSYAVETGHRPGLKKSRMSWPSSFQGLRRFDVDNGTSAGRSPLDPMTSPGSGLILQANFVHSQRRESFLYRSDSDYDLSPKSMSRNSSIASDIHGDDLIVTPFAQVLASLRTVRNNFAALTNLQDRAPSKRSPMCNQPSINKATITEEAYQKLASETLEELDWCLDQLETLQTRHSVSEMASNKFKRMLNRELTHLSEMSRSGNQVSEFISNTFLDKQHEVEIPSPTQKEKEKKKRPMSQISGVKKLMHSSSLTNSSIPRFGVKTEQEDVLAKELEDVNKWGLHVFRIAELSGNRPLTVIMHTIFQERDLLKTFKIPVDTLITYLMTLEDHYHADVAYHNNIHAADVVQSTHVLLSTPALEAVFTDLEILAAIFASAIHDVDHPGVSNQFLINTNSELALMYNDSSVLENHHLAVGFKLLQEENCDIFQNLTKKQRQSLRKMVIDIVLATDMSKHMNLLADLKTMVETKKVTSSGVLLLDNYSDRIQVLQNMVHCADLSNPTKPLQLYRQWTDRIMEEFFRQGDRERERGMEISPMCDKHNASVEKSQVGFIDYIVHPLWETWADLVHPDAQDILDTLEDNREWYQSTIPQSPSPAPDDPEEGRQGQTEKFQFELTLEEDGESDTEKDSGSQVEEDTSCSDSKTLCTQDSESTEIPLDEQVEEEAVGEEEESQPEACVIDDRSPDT

[6] = molecular target: Wee1-like protein kinase (Homo sapiens) (UniProt P30291); assay: WEE1(h) Millipore kinase panel; settings: Compound concentration 1.0 uM
[7] = molecular target: Glutamate receptor 2 (Homo sapiens) (UniProt P42262); settings: Rattus norvegicus; Compound concentration 10.0 uM
[8] = molecular target: Serine/threonine-protein kinase tousled-like 2 (Homo sapiens) (UniProt Q86UE8); assay: TLK2(h) Millipore kinase panel; settings: Compound concentration 1.0 uM
[9] = molecular target: Tau-tubulin kinase 2 (Homo sapiens) (UniProt Q6IQ55); assay: TTBK2(h) Millipore kinase panel; settings: Compound concentration 1.0 uM
Sequence of Tau-tubulin kinase 2 (Homo sapiens) (Q6IQ55 whole entry): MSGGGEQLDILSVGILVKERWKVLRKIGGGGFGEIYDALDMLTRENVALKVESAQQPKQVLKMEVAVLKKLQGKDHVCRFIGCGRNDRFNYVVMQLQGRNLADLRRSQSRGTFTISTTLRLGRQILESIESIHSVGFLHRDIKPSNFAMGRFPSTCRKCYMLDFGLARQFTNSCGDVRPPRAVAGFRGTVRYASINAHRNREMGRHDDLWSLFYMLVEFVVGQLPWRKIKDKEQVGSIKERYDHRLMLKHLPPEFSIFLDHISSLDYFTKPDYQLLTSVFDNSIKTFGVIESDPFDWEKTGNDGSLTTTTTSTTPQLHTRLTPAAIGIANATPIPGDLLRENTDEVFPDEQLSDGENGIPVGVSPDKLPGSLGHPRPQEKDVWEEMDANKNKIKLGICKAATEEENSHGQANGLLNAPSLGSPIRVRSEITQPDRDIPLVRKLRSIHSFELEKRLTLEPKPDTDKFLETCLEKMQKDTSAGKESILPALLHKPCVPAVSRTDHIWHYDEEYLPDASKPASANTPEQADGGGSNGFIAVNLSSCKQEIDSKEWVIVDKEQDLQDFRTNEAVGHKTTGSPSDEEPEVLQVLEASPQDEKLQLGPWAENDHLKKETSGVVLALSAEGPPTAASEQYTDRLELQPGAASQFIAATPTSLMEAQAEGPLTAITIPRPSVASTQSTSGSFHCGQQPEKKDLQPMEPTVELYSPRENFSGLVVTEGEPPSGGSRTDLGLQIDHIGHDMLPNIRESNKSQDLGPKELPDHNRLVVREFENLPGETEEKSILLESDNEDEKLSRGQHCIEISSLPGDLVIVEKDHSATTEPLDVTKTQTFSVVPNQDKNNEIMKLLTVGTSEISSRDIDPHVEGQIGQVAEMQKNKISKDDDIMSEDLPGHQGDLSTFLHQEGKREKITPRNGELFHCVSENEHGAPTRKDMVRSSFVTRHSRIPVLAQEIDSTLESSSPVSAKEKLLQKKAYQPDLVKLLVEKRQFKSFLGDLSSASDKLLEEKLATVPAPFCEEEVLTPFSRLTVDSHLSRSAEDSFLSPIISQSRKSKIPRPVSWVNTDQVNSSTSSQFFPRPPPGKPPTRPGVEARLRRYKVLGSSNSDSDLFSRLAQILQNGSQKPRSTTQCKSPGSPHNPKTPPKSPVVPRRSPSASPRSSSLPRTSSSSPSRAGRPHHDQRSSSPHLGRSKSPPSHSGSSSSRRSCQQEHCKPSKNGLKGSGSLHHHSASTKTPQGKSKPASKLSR

[10] = molecular target: Serine/threonine-protein kinase DCLK1 (Homo sapiens) (UniProt O15075); assay: DCAMKL1(h) Millipore kinase panel; settings: Compound concentration 1.0 uM
Sequence of Serine/threonine-protein kinase DCLK1 (Homo sapiens) (O15075 whole entry): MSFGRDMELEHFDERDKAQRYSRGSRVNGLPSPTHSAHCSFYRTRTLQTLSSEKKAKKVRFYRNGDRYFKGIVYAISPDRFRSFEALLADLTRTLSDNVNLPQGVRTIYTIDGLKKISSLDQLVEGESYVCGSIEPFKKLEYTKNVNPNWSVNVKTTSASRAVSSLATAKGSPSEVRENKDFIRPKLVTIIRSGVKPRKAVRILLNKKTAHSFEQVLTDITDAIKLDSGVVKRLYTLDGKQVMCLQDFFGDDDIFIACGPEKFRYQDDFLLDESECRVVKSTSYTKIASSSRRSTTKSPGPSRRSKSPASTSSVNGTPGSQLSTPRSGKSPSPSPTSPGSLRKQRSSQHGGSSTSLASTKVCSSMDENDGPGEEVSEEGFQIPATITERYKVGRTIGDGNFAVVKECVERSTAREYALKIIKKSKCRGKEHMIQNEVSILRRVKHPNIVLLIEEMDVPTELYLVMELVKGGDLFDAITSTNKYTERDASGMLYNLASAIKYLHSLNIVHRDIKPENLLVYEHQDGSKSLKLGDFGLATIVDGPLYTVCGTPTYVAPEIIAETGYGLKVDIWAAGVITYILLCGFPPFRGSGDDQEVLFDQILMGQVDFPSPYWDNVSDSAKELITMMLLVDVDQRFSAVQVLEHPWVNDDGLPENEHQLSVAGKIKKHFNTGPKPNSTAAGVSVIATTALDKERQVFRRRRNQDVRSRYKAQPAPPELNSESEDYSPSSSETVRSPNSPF

[11] = molecular target: Testis-specific serine/threonine-protein kinase 4 (Homo sapiens) (UniProt Q6SA08); assay: TSSK4(h) Millipore kinase panel; settings: Compound concentration 1.0 uM
[12] = molecular target: Tyrosine-protein kinase Yes (Homo sapiens) (UniProt P07947); assay: Yes(h) Millipore kinase panel; settings: Compound concentration 1.0 uM
[13] = molecular target: Monoamine oxidase B (MAO-B) (Homo sapiens, UniProt P27338); assay: Inhibition of Monoamine Oxidase MAO-B at compound concentration of 10.0 uM in the Eurofins-Panlabs enzyme assay (Eurofins_assay_140120); set-up: substrate with concentration 50 uM Kynuramine, incubation time 60 min, incubation temperature 37 C; settings: recombinant human MAO-B expressed in insect Hi5 cells, probe Kynuramine (50 uM), compound concentration 10 uM
[14] = molecular target: 5-hydroxytryptamine receptor 2B (Homo sapiens, UniProt P41595); assay: GPCRScan assay: inhibition of 5-HT2B; set-up: radioligand conc. used [nm] 1.0 – 2.0, parental cells stable HEK
[15] = molecular target: Ephrin type-A receptor 8 (Homo sapiens) (UniProt P29322); assay: EphA8(h) Millipore kinase panel; settings: Compound concentration 1.0 uM
Sequence of Ephrin type-A receptor 8 (Homo sapiens) (P29322 whole entry): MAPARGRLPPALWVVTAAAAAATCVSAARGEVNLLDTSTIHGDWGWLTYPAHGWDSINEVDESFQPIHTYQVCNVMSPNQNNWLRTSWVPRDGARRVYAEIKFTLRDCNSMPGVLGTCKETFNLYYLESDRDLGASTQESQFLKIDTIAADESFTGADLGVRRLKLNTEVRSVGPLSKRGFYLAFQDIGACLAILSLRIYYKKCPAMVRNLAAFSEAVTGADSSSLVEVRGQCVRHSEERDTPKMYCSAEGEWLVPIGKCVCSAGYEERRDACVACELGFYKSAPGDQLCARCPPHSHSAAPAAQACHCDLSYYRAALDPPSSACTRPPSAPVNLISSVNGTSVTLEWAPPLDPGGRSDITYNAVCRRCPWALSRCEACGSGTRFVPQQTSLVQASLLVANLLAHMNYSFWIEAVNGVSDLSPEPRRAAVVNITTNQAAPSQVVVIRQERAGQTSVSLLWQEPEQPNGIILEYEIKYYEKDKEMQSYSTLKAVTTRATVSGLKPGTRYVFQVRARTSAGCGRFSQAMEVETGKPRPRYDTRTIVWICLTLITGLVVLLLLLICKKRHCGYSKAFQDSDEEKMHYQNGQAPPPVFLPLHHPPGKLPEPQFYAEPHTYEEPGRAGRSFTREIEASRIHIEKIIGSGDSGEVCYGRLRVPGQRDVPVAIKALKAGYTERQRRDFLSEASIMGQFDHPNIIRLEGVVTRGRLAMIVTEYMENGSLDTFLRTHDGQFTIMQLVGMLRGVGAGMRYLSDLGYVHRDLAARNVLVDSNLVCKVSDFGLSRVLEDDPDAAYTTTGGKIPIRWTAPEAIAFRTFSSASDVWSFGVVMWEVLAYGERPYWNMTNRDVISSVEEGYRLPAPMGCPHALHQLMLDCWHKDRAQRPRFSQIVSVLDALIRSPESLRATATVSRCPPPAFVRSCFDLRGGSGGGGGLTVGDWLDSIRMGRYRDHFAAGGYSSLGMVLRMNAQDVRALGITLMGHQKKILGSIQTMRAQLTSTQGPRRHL

[16] = molecular target: Serine/threonine-protein kinase ICK (Homo sapiens) (UniProt Q9UPZ9); assay: ICK(h) Millipore kinase panel; settings: Compound concentration 1.0 uM
[17] = molecular target: Serine/threonine-protein kinase PAK 4 (Homo sapiens) (UniProt O96013); assay: PAK4(h) Millipore kinase panel; settings: Compound concentration 1.0 uM
[18] = molecular target: Serine/threonine-protein kinase SIK2 (Homo sapiens) (UniProt Q9H0K1); assay: SIK2(h) Millipore kinase panel; settings: Compound concentration 1.0 uM

CC[C@@H](Nc1c(C#N)c(-c2ccc(-c3cccc(C)c3F)cc2)nc2cnccc12)C(=O)O [BAY-091]
inhibition [1]: 2.41%
inhibition [2]: 15.8%
inhibition [3]: 14.7%
inhibition (Homo sapiens): 3.59%
inhibition [4]: 3.85%
inhibition [5]: 38%
inhibition [6]: 5.28%
inhibition [7]: -4%
inhibition [8]: 8.27%
inhibition [9]: 1.17%
inhibition [10]: 13%
inhibition [11]: 24%
inhibition [12]: -3.76%
inhibition at 60 min, 10 µM [13]: 81% (active)
Ki [14]: 1500 nM
inhibition [15]: -6.72%
inhibition [16]: 14.8%
inhibition [17]: 1.36%
inhibition [18]: 3.68%
